The subject of test [1] is Arabidopsis thaliana third true leaf. Briefly: Growth (kinematic) analysis of the third leaf after transfer of seedlings to mannitol- or ACC-containing medium. Particulars: for reduction in leaf area: 72 h after transfer to mannitol (12 DAS). It counts as in vivo. The method, then:
Arabidopsis seedlings were germinated and grown on nylon meshes overlaying control medium until 9 days after stratification (DAS), when the third true leaf is fully proliferating (Skirycz et al., 2010), and subsequently transferred to control or mannitol-containing medium (FIGS. 1A to 10). Kinematic analysis was performed, whereby leaves were harvested daily throughout development of leaf 3 (9-20 DAS) and based on drawings of the abaxial epidermis cell number, cell area, number of guard cells and cell division and cell expansion rates were calculated (De Veylder et al., 2001). […] Leaf and plant morphology were not altered by mannitol (FIG. 2C). Cell expansion was also affected by stress and the reduced final leaf area was a combination of fewer and smaller cells (FIG. 2D). The stomatal index, which represents the number of stomata as a fraction of the total number of cells, was reduced as well (FIG. 2E). To learn more about the mechanisms underlying the rapid reduction of cell division upon stress onset, we harvested leaf samples daily after transfer. As a measure of cellular differentiation, the ploidy distribution was examined by flow cytometry. […] In stressed leaves, 4C nuclei started to accumulate approximately one day earlier than in controls at the expense of 2C nuclei (FIG. 3A). Analogously, the number of 8C nuclei increased sharply at 14 DAS in stressed leaves, but only at 15 DAS in control samples (FIG. 3A). Again, transfer itself had no effect on ploidy levels (not shown). […] This observation was further investigated with a CYCB1;1:Dbox-GUS reporter line. Staining for CYCB1;1:Dbox-GUS activity visualizes cells at the G2-to-M transition, reflecting mitotic activity (Colón-Carmona et al., 1999). The most apparent differences were observed 48 h after transfer. […] While the relative size of the cell proliferation zone was similar in mannitol-treated leaves, the remaining proliferating cells were found in a dispersed pattern throughout this zone. […] Within a few days after transfer, division rates adapted to the new conditions and compensation effects were observed.
Seedlings of Arabidopsis thaliana (L.) Heyhn. ecotype Columbia-0 (Col-0) were grown in vitro in half-strength Murashige and Skoog medium (Murashige and Skoog, 1962), supplemented with 1% sucrose under a 16-h day (110 μmol m^−2 s^−1) and 8-h night regime. Plates were overlaid with nylon mesh (Prosep, Zaventem, Belgium) of 20 μm pore size to avoid that roots grew into the medium. Depending on the experiment, 32 or 64 seeds were equally distributed on a 150-mm diameter plate. Mutant plants were grown together with their wild-type controls on the same plate.
At 9 DAS, when the third leaf is fully proliferating, seedlings were transferred to plates containing control medium or medium supplemented with 25 mM mannitol (Sigma-Aldrich) or 5 μM ACC (Sigma-Aldrich) by gently lifting the nylon mesh with forceps. For the CDKA activity assay the transfer was done at 11 DAS; at this stage, the third leaf is still dividing and can be quickly harvested without the need for RNAlater solution (see below) that would inhibit CDKA activity. All transfers were performed 2-3 h into the day.
Growth analysis was performed on the third true leaf harvested at different time points after transfer. After clearing with 70% ethanol, leaves were mounted in lactic acid on microscopic slides. For each experiment, 8-12 leaves were photographed with a binocular, and epidermal cells (40-300) were drawn for four representative leaves with a DMLB microscope (Leica) fitted with a drawing tubus and a differential interference contrast objective. Photographs of leaves and drawings were used to measure leaf and cell area, respectively, with ImageJ v1.41o (NIH; http://rsb.info.nih.gov/ij/), from which the cell numbers were calculated. The stomatal index was defined as the percentage of stomata per all cells. […]

Test [2] has the same test system. Briefly: Ploidy analysis of leaf 3 by flow cytometry (endoreduplication onset). It counts as in vivo. Particulars: transfer at 9 DAS to 25 mM mannitol or 5 μM ACC. The method, then:
Arabidopsis seedlings were germinated and grown on nylon meshes overlaying control medium until 9 days after stratification (DAS), when the third true leaf is fully proliferating (Skirycz et al., 2010), and subsequently transferred to control or mannitol-containing medium (FIGS. 1A to 10). Kinematic analysis was performed, whereby leaves were harvested daily throughout development of leaf 3 (9-20 DAS) and based on drawings of the abaxial epidermis cell number, cell area, number of guard cells and cell division and cell expansion rates were calculated (De Veylder et al., 2001). […] Leaf and plant morphology were not altered by mannitol (FIG. 2C). Cell expansion was also affected by stress and the reduced final leaf area was a combination of fewer and smaller cells (FIG. 2D). The stomatal index, which represents the number of stomata as a fraction of the total number of cells, was reduced as well (FIG. 2E). To learn more about the mechanisms underlying the rapid reduction of cell division upon stress onset, we harvested leaf samples daily after transfer. […]
For flow cytometry analysis, nuclei were extracted by chopping 4-32 leaves with a razor blade in 1 ml of 45 mM MgCl2, 30 mM sodium citrate, 20 mM 3-(N-morpholino)propanesulfonic acid, pH 7, and 1% Triton X-100 (Galbraith et al., 1983). […] The nuclei were analyzed with a CyFlow flow cytometer with the FloMax Software (Partec).

[3] abbreviates: transfer at 9 DAS to 25 mM mannitol or 5 μM ACC, leaf 3.

As for `OC[C@@H](O)[C@@H](O)[C@H](O)[C@H](O)CO` [mannitol], the “leaf and plant morphology” value in test [1] (25 mM mannitol) is listed as “not altered”. In test [1] (25 mM mannitol in growth medium), the “reduction of leaf area” value was “approximately 50%”. The “reduction in leaf area” value in test [1] (ein5.1 mutant) is recorded as around 20%; in test [1] (etr1.3 mutant) it was around 30%; in test [1] (wild type), around 45%. For the same compound, in test [1] (setting [3]), the cell proliferation rates entry is on record as “reduced proliferation rates”. Moreover, the stomatal index result in test [1] (setting [3]) was “reduced”. Further, the endoreduplication onset result in test [2] is on record as “faster onset of endoreduplication”.

Source of the values: patent publication US20140130208A1, “METHODS AND MEANS TO PRODUCE ABIOTIC STRESS TOLERANT PLANTS” (VIB VZW, priority 2011, published 2014).
